Key:
Experiment in all cases: Test D pre-/postemergence plant response
Type in all cases: in vivo
[1] = test system: ragweed (common ragweed, Ambrosia elatior)
Summary of the method: (§1)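 Sown seed (loam/sand soil) treated preemergence; emerged plants, 1- to 4-leaf stage and 2 to 18 cm, treated postemergence in peat/vermiculite medium. Greenhouse incubation 13–15 d. Endpoint: visual 0–100 rating versus untreated.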

[2] = test system: velvetleaf (Abutilon theophrasti)
Summary of the method: as §1

[3] = test system: galium (catchweed bedstraw, Galium aparine)
Summary of the method: as §1

[4] = test system: winter wheat (Triticum aestivum)
Summary of the method: as §1

[5] = test system: lambsquarters (Chenopodium album)
Summary of the method: as §1

corn (Zea mays) = test system: corn (Zea mays)
Summary of the method: as §1

[6] = test system: blackgrass (Alopecurus myosuroides)
Summary of the method: as §1

[7] = test system: oilseed rape (Brassica napus)
Summary of the method: as §1

[8] = test system: yellow nutsedge (Cyperus esculentus)
Summary of the method: as §1

[9] = test system: pigweed (Amaranthus retroflexus)
Summary of the method: as §1

[10] = test system: barnyardgrass (Echinochloa crus-galli)
Summary of the method: as §1

[11] = test system: morningglory (Ipomoea coccinea)
Summary of the method: as §1

[12] = test system: giant foxtail (Setaria faberii)
Summary of the method: as §1

soybean (Glycine max) = test system: soybean (Glycine max)
Summary of the method: as §1

[13] = test system: Italian ryegrass (Lolium multiflorum)
Summary of the method: as §1

[14] = test system: johnsongrass (Sorghum halepense)
Summary of the method: as §1

[15] = test system: large (Lg) crabgrass (Digitaria sanguinalis)
Summary of the method: as §1

[16] = test system: waterhemp (common waterhemp, Amaranthus rudis)
Summary of the method: as §1

[17] = Postemergence, 16 g ai/ha, scale 0 to 100 (0 no effect, 100 complete control)
[18] = Postemergence, 31 g ai/ha, scale 0 to 100 (0 no effect, 100 complete control)
[19] = Postemergence, 62 g ai/ha, scale 0 to 100, 0 no effect, 100 complete control
[20] = Postemergence, 125 g ai/ha, scale 0 to 100, 0 no effect, 100 complete control
[21] = Preemergence, 16 g ai/ha, scale 0 to 100 (0 no effect, 100 complete control)
[22] = Preemergence, 31 g ai/ha, scale 0 to 100 (0 no effect, 100 complete control)
[23] = Preemergence, 62 g ai/ha, scale 0 to 100 (0 no effect, 100 complete control)

FC(F)c1cc(-c2c(Cl)cccc2Oc2ncc(Cl)cn2)on1 [Compound 120]
10: Plant response rating, Corn (corn (Zea mays); [19]) | Nutsedge, Yellow plant response rating [8, 18] | Plant response rating, Nutsedge, Yellow [8, 19] | Barnyardgrass plant response rating [10, 17] | Foxtail, Giant plant response rating [12, 17] | Foxtail, Giant plant response rating [12, 18] | Plant response rating, Soybean (soybean (Glycine max); [22]) | Plant response rating, Ryegrass, Italian [13, 19]
75: Plant response rating, Velvetleaf [2, 22] | Plant response rating (scale 0 to 100), Corn (corn (Zea mays); Preemergence, 125 g ai/ha) | Plant response rating, Barnyardgrass [10, 22] | Plant response rating (scale 0 to 100), Morningglory ([11]; Preemergence, 125 g ai/ha) | Plant response rating, Soybean (soybean (Glycine max); [21])
60: Plant response rating, Blackgrass [6, 19] | Plant response rating, Blackgrass [6, 22] | Plant response rating, Morningglory [11, 23] | Plant response rating, Soybean (soybean (Glycine max); [23])
15: Corn plant response rating (corn (Zea mays); [17]) | Corn plant response rating (corn (Zea mays); [18]) | Plant response rating, Corn (corn (Zea mays); [20]) | Plant response rating, Nutsedge, Yellow [8, 20] | Barnyardgrass plant response rating [10, 18] | Plant response rating, Foxtail, Giant [12, 19]
35: Plant response rating, Corn (corn (Zea mays); [22]) | Blackgrass plant response rating [6, 18] | Plant response rating, Nutsedge, Yellow [8, 23] | Plant response rating, Ryegrass, Italian [13, 22] | Plant response rating, Crabgrass, Large [15, 19]
85: Plant response rating, Ragweed [1, 20] | Velvetleaf plant response rating [2, 18] | Oilseed Rape plant response rating [7, 18] | Morningglory plant response rating [11, 17] | Plant response rating, Johnsongrass [14, 20]
100: Plant response rating (scale 0 to 100), Ragweed ([1]; Preemergence, 125 g ai/ha) | Plant response rating, Velvetleaf [2, 19] | Plant response rating, Velvetleaf [2, 20] | Plant response rating (scale 0 to 100), Velvetleaf ([2]; Preemergence, 125 g ai/ha) | Plant response rating, Velvetleaf [2, 23] | Plant response rating, Galium [3, 19] | Plant response rating, Galium [3, 20] | Lambsquarters plant response rating [5, 17] | Lambsquarters plant response rating [5, 18] | Plant response rating, Lambsquarters [5, 19] | Plant response rating, Lambsquarters [5, 20] | Plant response rating (scale 0 to 100), Lambsquarters ([5]; Preemergence, 125 g ai/ha) | Plant response rating (scale 0 to 100), Oilseed Rape ([7]; Preemergence, 125 g ai/ha) | Pigweed plant response rating [9, 18] | Plant response rating, Pigweed [9, 19] | Plant response rating, Pigweed [9, 20] | Plant response rating (scale 0 to 100), Pigweed ([9]; Preemergence, 125 g ai/ha) | Plant response rating, Pigweed [9, 21] | Plant response rating, Pigweed [9, 22] | Plant response rating, Pigweed [9, 23] | Plant response rating (scale 0 to 100), Barnyardgrass ([10]; Preemergence, 125 g ai/ha) | Plant response rating, Morningglory [11, 20] | Plant response rating (scale 0 to 100), Foxtail, Giant ([12]; Preemergence, 125 g ai/ha) | Plant response rating (scale 0 to 100), Crabgrass, Large ([15]; Preemergence, 125 g ai/ha) | Plant response rating, Crabgrass, Large [15, 22] | Plant response rating, Crabgrass, Large [15, 23] | Waterhemp plant response rating [16, 18] | Plant response rating, Waterhemp [16, 19] | Plant response rating, Waterhemp [16, 20] | Plant response rating (scale 0 to 100), Waterhemp ([16]; Preemergence, 125 g ai/ha) | Plant response rating, Waterhemp [16, 21] | Plant response rating, Waterhemp [16, 22] | Plant response rating, Waterhemp [16, 23]
80: Oilseed Rape plant response rating [7, 17] | Plant response rating, Morningglory [11, 19]
65: Plant response rating, Crabgrass, Large [15, 20]
50: Plant response rating, Velvetleaf [2, 21] | Plant response rating, Oilseed Rape [7, 21] | Plant response rating (scale 0 to 100), Soybean (soybean (Glycine max); Preemergence, 125 g ai/ha) | Plant response rating, Ryegrass, Italian [13, 20] | Plant response rating, Johnsongrass [14, 21]
25: Plant response rating, Ragweed [1, 23] | Plant response rating, Corn (corn (Zea mays); [23]) | Plant response rating, Barnyardgrass [10, 19] | Plant response rating, Barnyardgrass [10, 21] | Plant response rating, Foxtail, Giant [12, 20] | Crabgrass, Large plant response rating [15, 18]
20: Blackgrass plant response rating [6, 17]
95: Plant response rating, Lambsquarters [5, 22] | Plant response rating, Oilseed Rape [7, 20] | Plant response rating, Oilseed Rape [7, 23] | Plant response rating, Foxtail, Giant [12, 21] | Plant response rating, Soybean (soybean (Glycine max); [20]) | Plant response rating, Johnsongrass [14, 23]
30: Plant response rating, Morningglory [11, 22] | Johnsongrass plant response rating [14, 18] | Crabgrass, Large plant response rating [15, 17]
40: Ragweed plant response rating [1, 17] | Plant response rating, Barnyardgrass [10, 20] | Plant response rating, Johnsongrass [14, 19]
70: Plant response rating, Ragweed [1, 19] | Velvetleaf plant response rating [2, 17] | Plant response rating, Lambsquarters [5, 21] | Plant response rating, Blackgrass [6, 21] | Soybean plant response rating (soybean (Glycine max); [18]) | Plant response rating, Soybean (soybean (Glycine max); [19])
45: Plant response rating (scale 0 to 100), Nutsedge, Yellow ([8]; Preemergence, 125 g ai/ha)
55: Ragweed plant response rating [1, 18] | Plant response rating, Blackgrass [6, 20] | Plant response rating, Johnsongrass [14, 22]
98: Galium plant response rating [3, 17] | Galium plant response rating [3, 18] | Plant response rating, Galium [3, 22] | Pigweed plant response rating [9, 17] | Morningglory plant response rating [11, 18] | Plant response rating, Foxtail, Giant [12, 22] | Plant response rating, Foxtail, Giant [12, 23] | Plant response rating (scale 0 to 100), Johnsongrass ([14]; Preemergence, 125 g ai/ha) | Plant response rating, Crabgrass, Large [15, 21]
0: Plant response rating, Ragweed [1, 21] | Plant response rating, Ragweed [1, 22] | Wheat plant response rating [4, 17] | Wheat plant response rating [4, 18] | Plant response rating, Wheat [4, 19] | Plant response rating, Wheat [4, 20] | Plant response rating, Wheat [4, 21] | Plant response rating, Wheat [4, 22] | Plant response rating, Corn (corn (Zea mays); [21]) | Plant response rating, Nutsedge, Yellow [8, 21] | Plant response rating, Morningglory [11, 21]
5: Plant response rating (scale 0 to 100), Wheat ([4]; Preemergence, 125 g ai/ha) | Plant response rating, Wheat [4, 23] | Nutsedge, Yellow plant response rating [8, 17] | Plant response rating, Nutsedge, Yellow [8, 22] | Ryegrass, Italian plant response rating [13, 17] | Ryegrass, Italian plant response rating [13, 18] | Plant response rating, Ryegrass, Italian [13, 21] | Johnsongrass plant response rating [14, 17]
90: Plant response rating (scale 0 to 100), Galium ([3]; Preemergence, 125 g ai/ha) | Plant response rating, Galium [3, 21] | Plant response rating, Galium [3, 23] | Plant response rating, Lambsquarters [5, 23] | Plant response rating (scale 0 to 100), Blackgrass ([6]; Preemergence, 125 g ai/ha) | Plant response rating, Blackgrass [6, 23] | Plant response rating, Oilseed Rape [7, 19] | Plant response rating, Oilseed Rape [7, 22] | Plant response rating (scale 0 to 100), Barnyardgrass ([10]; Preemergence, 62 g ai/ha) | Soybean plant response rating (soybean (Glycine max); [17]) | Plant response rating (scale 0 to 100), Ryegrass, Italian ([13]; Preemergence, 125 g ai/ha) | Plant response rating, Ryegrass, Italian [13, 23] | Waterhemp plant response rating [16, 17]
